Where two headings read alike, the source gives them in different places. One block for each molecule: values may come before it.
How the values were obtained:
[1] = amine bond, 12-membered ring
[2] = TSA/SA isomer ratio of lanthanide complexes by 1H NMR; assay type: physicochemical; conditions: 25° C., 400 MHz, pD 7.0, aqueous solution
From the text: (§1) In aqueous solution, the ratio of TSA/SA isomers of Eu(III) and Yb(III) complexes in DOTA-like systems can be easily determined by ^1H NMR as two well-defined sets of six resonances are observed for the diastereotopic protons in CH2CO and NCH2CH2N.^13 Although the Gd(III) complexes cannot be analyzed by NMR, their ratio of isomers are expected to be similar to those of the Eu(III) and Yb(III) complexes because the ionic radius of Gd(III) is similar to the ionic radius of Eu(III) and Yb(III).
(§2) The conformational properties of the lanthanide complexes were investigated by both HPLC and NMR spectroscopy. The ^1H NMR spectra of the four europium chiral DOTA-based complexes are compared in FIG. 3. […] In the cases of [EuL3]^− and [EuL4]^−, the twisted antiprismatic isomers were more dominant, with the ratio of 6.52 for [EuL3]^− and 13.50 for [EuL4]^− observed.
The ratio of TSA/SA isomers for [YbL1]^− (0.28) and [YbL2]^− (0.93) was relatively lower than that of the europium analogues. The ratio change from [YbL2]^− to [YbL3]^− was also not as apparent.

[3] = Stability of isomers on heating and storage by 1H NMR; assay type: physicochemical; conditions: solution of [EuL2A]− and [EuL2B]− at 1:0.25, 90° C. for 3 days
From the text: as §1, §2
The stability of the complexes toward racemization over time was also monitored by ^1H NMR (FIG. 20). […] Nevertheless, the original set of peaks existed predominately when the pD was adjusted from 6.0 to 7.5 and further heated for 12 h at 90° C. It can be observed that while the purity of the ligands may not be highly satisfactory, pure complexes could be obtained by HPLC separation after complexation. This phenomenon indicates the purification of DOTA-based ligands should be handled with care.

[4] = Relaxivity (r1, r2) measurement of Gd(III) complexes in water, BSA and human plasma; assay type: physicochemical; parameters: r1 Human Plasma (1.5 T): unit not given beside the values; conditions: 1.5 T, 37° C.
Experimental: This is very important because the huge difference in the inner-sphere coordinated water exchange rate between the two isomers is a key factor for applications, for example, as MRI contrast agents. To show their potential value, the two diastereomers of [GdL2]^− ([GdL2A]^− and [GdL2B]^−) were separated and their relaxivities were measured. The relaxivities of [GdL1]^−, [GdL2]^−, [GdL2A]^−, [GdL2B]^− and [GdDOTA]^− in water at different magnetic strengths (1.5 T and 11.7 T) were compared, with or without the presence of BSA and human plasma (1.5 T) (Table 1). It is clearly seen that the complexes of [GdL1]^−, [GdL2A]^− and [GdL2B]^− have relaxivity properties similar to that of the [GdDOTA]^− complex.

[5] = Absorption and photoluminescence (quantum yield, lifetime, q); assay type: physicochemical; parameters: λabs(max): unit not given here; conditions: listed as 12b
Experimental: (§3) Absorption spectra of complexes were measured with HP UV-8453 spectrophotometer. Steady-state room temperature photoluminescence measurements were performed with an Edinburgh Instrument FLSP920 spectrophotometer equipped with a Xe900 continuous xenon lamp, μF920 microsecond flash lamp and a single photon counting photomultiplier tube. Spectra were corrected with the bundled F900 software. Solution-state measurements were conducted using quartz curettes of 10 mm path length. CPL measurements were conducted on a custom built spectrometer^63 (in Durham University) consisting of a laser driven light source (Energetiq EQ-99 LDLS, spectral range 170 to 2100 nm) coupled to an Acton SP2150 monochromator (600 g/nm, 300 nm Blaze) that allows excitation wavelengths to be selected with a 6 nm FWHM band-pass. The collection of the emitted light was facilitated (90° angle set up, 1 cm path length quartz curette) by a Lock-In Amplifier (Hinds Instruments Signaloc 2100) and Photoelastic Modulator (Hinds Instruments PEM-90). The differentiated light was focused onto an Acton SP2150 monochromator (1200 g/nm, 500 nm Blaze) equipped with a high sensitivity cooled Photo Multiplier Tube (H10723-20 Extended red-multialkali PMT based photosensor (5V)). Spectra were recorded using a 5 spectral average sequence in the range of 570-720 nm with 0.5 nm spectral intervals and 500 μs integration time. The recorded CPL spectrum underwent a 25% Fourier transformation smoothening protocol using Origin 8.0 Software (Origin Labs) to enhance appearance (all calculations were carried out using raw spectral data).
The shift in absorption is caused by electronic communication between the electropositive lanthanide center and the chromophore. […] These are not observed for 11, however, as we believe the steric effect of the planar phenyl ring of the benzyl group could not be alleviated by appropriate rotation, whereas that of the isobutyl group could.
The luminescence quantum yields of the complexes are decent in water and HEPES solution, although they are much higher in DMSO, due to the nonradiative quenching by O—H oscillators of water molecules in the second coordination sphere (Table 6). The intrinsic quantum yields^61—a calculated value evaluating the quantum yield of Eu(III) via direct metal excitation—of the complexes are calculated, and, as expected, the values are very similar, except for 10. The higher value corroborates with the shift in absorption maximum, for which we believe the reason is due to a shorter europium—chromophore distance and better interaction. On the other hand, the sensitization efficiencies of the complexes vary. […] The relatively remarkable ηsens of 13 is attributed to its structural rigidity, as both the tetraaza backbone and the acetate arms are modified with a chrial substituent, i.e., double chirality. The double chirality is also attributed for the increase in luminescence quantum yield compared to that of 12a/12b.

[6] = Circularly polarized luminescence (CPL), dissymmetry factor glum; assay type: physicochemical; conditions: wavelength in parentheses in the cell, listed as 12b
Experimental: as §3, with “Steady-state” for “Absorption spectra of complexes were measured with HP UV-8453 spectrophotometer. Steady-state”, “time.” for “time. The recorded CPL spectrum underwent a 25% Fourier transformation smoothening protocol using Origin 8.0 Software (Origin Labs) to enhance appearance (all calculations were carried out using raw spectral data).”

Compound: CC(C)C[C@H]1CN(Cc2ccccc2)[C@@H](CC(C)C)CN(Cc2ccccc2)[C@@H](CC(C)C)CN(Cc2ccccc2)[C@@H](CC(C)C)CN1Cc1ccccc1
ring closure, isolated yield [1]: 28.3%

isomer ratio of TSA/SA [2]: 0.28
Compound: C[C@H]1CN(CC(=O)[O-])[C@@H](C)CN(CC(=O)[O-])[C@@H](C)CN(CC(=O)[O-])[C@@H](C)CN1CC(=O)[O-].[Yb+3] [[YbL1]^−]

Compound: O=[N+]([O-])c1ccc(C[C@H]2CN(Cc3ccccc3)[C@@H](Cc3ccc([N+](=O)[O-])cc3)CN(Cc3ccccc3)[C@@H](Cc3ccc([N+](=O)[O-])cc3)CN(Cc3ccccc3)[C@@H](Cc3ccc([N+](=O)[O-])cc3)CN2Cc2ccccc2)cc1
ring closure, isolated yield ([1]; from O=[N+]([O-])c1ccc(CC2C[N@@]2Cc2ccccc2)cc1, TsOH.H2O, MeCN, 84.7 mM, 25.0 °C): 20.6%

isomer ratio after heating (lack of racemization) [3]: remained at the same ratio
Compound: CC[C@H]1CN(CC(=O)[O-])[C@@H](CC)CN(CC(=O)[O-])[C@@H](CC)CN(CC(=O)[O-])[C@@H](CC)CN1CC(=O)[O-].[Eu+3] (single isomer, unassigned) [[EuL2B]^−]

Compound: O=C([O-])CN1CCN(CC(=O)[O-])CCN(CC(=O)[O-])CCN(CC(=O)[O-])CC1.[Gd+3] [[GdDOTA]^−, reference compound]
r1 4.5 w/v BSA (1.5 T) [4]: 4.1
r1 Human Plasma (1.5 T) [4]: 4.0
r1 Water (1.5 T) [4]: 3.2

isomer ratio of TSA/SA [2]: 1.27
Compound: CC[C@H]1CN(CC(=O)[O-])[C@@H](CC)CN(CC(=O)[O-])[C@@H](CC)CN(CC(=O)[O-])[C@@H](CC)CN1CC(=O)[O-].[Eu+3] [[EuL2]^−]

isomer ratio of TSA/SA [2]: 0.75
Compound: C[C@H]1CN(CC(=O)[O-])[C@@H](C)CN(CC(=O)[O-])[C@@H](C)CN(CC(=O)[O-])[C@@H](C)CN1CC(=O)[O-].[Eu+3] [[EuL1]^−]

Compound: CC(C)(C)OC(=O)NCCCC[C@H]1CN(Cc2ccccc2)[C@@H](CCCCNC(=O)OC(C)(C)C)CN(Cc2ccccc2)[C@@H](CCCCNC(=O)OC(C)(C)C)CN(Cc2ccccc2)[C@@H](CCCCNC(=O)OC(C)(C)C)CN1Cc1ccccc1
ring closure, isolated yield ([1]; from CC(C)(C)OC(=O)NCCCCC1C[N@@]1Cc1ccccc1, TsOH.H2O, MeCN, 82.1 mM, 25.0 °C): 24.5%

Compound: CC[C@H]1CN(CC(=O)[O-])[C@@H](CC)CN(CC(=O)[O-])[C@@H](CC)CN(CC(=O)[O-])[C@@H](CC)CN1CC(=O)[O-].[Gd+3] (single isomer, unassigned) [[GdL2B]^−]
r1 4.5 w/v BSA (1.5 T) [4]: 3.6
r1 Human Plasma (1.5 T) [4]: 3.5
r1 Water (1.5 T) [4]: 3.0

Compound: c1ccc(C[C@H]2CN(Cc3ccccc3)[C@@H](Cc3ccccc3)CN(Cc3ccccc3)[C@@H](Cc3ccccc3)CN(Cc3ccccc3)[C@@H](Cc3ccccc3)CN2Cc2ccccc2)cc1
ring closure, isolated yield [1]: 25%

isomer ratio of TSA/SA [2]: 13.50
Compound: O=C([O-])CN1CC(Cc2ccccc2)N(CC(=O)[O-])CC(Cc2ccccc2)N(CC(=O)[O-])CC(Cc2ccccc2)N(CC(=O)[O-])CC1Cc1ccccc1.[Eu+3] (stereo not shown) [[EuL4]^−]

isomer ratio of TSA/SA [2]: 6.52
Compound: CC(C)C[C@H]1CN(CC(=O)[O-])[C@@H](CC(C)C)CN(CC(=O)[O-])[C@@H](CC(C)C)CN(CC(=O)[O-])[C@@H](CC(C)C)CN1CC(=O)[O-].[Eu+3] [[EuL3]^−]

Compound: CC[C@H]1CN(Cc2ccccc2)[C@@H](CC)CN(Cc2ccccc2)[C@@H](CC)CN(Cc2ccccc2)[C@@H](CC)CN1Cc1ccccc1
ring closure, isolated yield [1]: 27.5%

R, I(5D0 → 7F2)/I(5D0 → 7F1) ([5]; asymmetry ratio, room temperature, 10 in MeOH, 11 in DMSO): 2.41
q (Parker's) ([5]; from lifetimes in H2O and D2O, first value of cell): 0.11
q (Horrocks') ([5]; from lifetimes in H2O and D2O, second value of cell): 0.03
ΦEuEu (%) ([5]; intrinsic quantum yield, calculated value): 24.9%
τD2O/MeOD ([5]; luminescence lifetime, 5D0 → 7F2 transition, D2O (MeOD for 10)): 1.77 ms
τH2O/MeOH ([5]; luminescence lifetime, 5D0 → 7F2 transition, H2O (MeOH for 10)): 1.04 ms
ΦDMSO (%) ([5]; luminescence quantum yield in DMSO): 44.1%
ΦH2O/MeOH (%) ([5]; luminescence quantum yield relative to quinine sulfate in 0.1M H2SO4, H2O (MeOH for 10, insoluble in H2O)): 10.2%
ΦHEPES (%) ([5]; luminescence quantum yield, 0.1M HEPES buffer, pH 7.4): 9.8%
λabs(max) ([5]; room temperature, 10 measured in MeOH, 11 in DMSO): 355
glum ΔJ = 1 (λ) DMSO ([6]; DMSO): −0.11 (591)
glum ΔJ = 3 (λ) DMSO ([6]; DMSO): −0.10 (653)
glum ΔJ = 1 (λ) H2O ([6]; H2O): −0.04 (591)
glum ΔJ = 3 (λ) H2O ([6]; H2O): −0.11 (653)
Compound: COc1cc(OC)c(C#Cc2cc(CN3CCN(C(C)C(=O)[O-])CCN(C(C)C(=O)[O-])CCN(C(C)C(=O)[O-])CC3)nc(P(C)(=O)[O-])c2)c(OC)c1.[Eu+3] (single isomer, unassigned) [Complex 12b]
ηsens (%) ([5]; sensitization efficiency, calculated according to ref 61): 41.0%

Compound: CC[C@H]1CN(CC(=O)[O-])[C@@H](CC)CN(CC(=O)[O-])[C@@H](CC)CN(CC(=O)[O-])[C@@H](CC)CN1CC(=O)[O-].[Gd+3] (single isomer, unassigned) [[GdL2A]^−]
r1 4.5 w/v BSA (1.5 T) [4]: 3.9
r1 Human Plasma (1.5 T) [4]: 2.9
r1 Water (1.5 T) [4]: 3.0

isomer ratio of TSA/SA [2]: essentially one TSA isomer
Compound: O=C([O-])CN1CC(Cc2ccccc2)N(CC(=O)[O-])CC(Cc2ccccc2)N(CC(=O)[O-])CC(Cc2ccccc2)N(CC(=O)[O-])CC1Cc1ccccc1.[Yb+3] (stereo not shown) [[YbL4]^−]

isomer ratio of TSA/SA [2]: 0.93
Compound: CC[C@H]1CN(CC(=O)[O-])[C@@H](CC)CN(CC(=O)[O-])[C@@H](CC)CN(CC(=O)[O-])[C@@H](CC)CN1CC(=O)[O-].[Yb+3] [[YbL2]^−]
